Experimental findings from paper PMC12951562, “SH2scan: Mapping SH2 Domain-Ligand Binding Selectivity for Inhibitors and Degraders” (Journal of Medicinal Chemistry, 2026) are described below.

Experiment in all cases: biochemical
Common to all, as to assay type: binding

One experiment concerns the target T1, STAP2 (Homo sapiens, UniProt Q9UGK3).
T1 construct: made in house; host or cells: HEK293 (transient transfection), unpurified extract
T1 sequence (Q9UGK3 1-403): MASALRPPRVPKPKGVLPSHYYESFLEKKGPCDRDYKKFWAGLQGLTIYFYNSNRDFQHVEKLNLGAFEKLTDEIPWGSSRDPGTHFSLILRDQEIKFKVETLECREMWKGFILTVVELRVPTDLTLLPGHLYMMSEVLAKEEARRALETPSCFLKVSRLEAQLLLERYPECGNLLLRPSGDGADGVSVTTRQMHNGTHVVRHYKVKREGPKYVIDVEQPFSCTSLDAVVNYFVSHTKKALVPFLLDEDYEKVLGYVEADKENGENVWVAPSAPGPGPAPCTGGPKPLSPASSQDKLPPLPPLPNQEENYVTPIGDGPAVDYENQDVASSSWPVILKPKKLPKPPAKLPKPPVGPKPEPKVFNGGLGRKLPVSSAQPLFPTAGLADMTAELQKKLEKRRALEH

For a further experiment, the target named is T2, STAP1 (Homo sapiens, UniProt Q9ULZ2).
T2 construct: made in house; host or cells: HEK293 (transient transfection), unpurified extract
T2 sequence (Q9ULZ2 1-295): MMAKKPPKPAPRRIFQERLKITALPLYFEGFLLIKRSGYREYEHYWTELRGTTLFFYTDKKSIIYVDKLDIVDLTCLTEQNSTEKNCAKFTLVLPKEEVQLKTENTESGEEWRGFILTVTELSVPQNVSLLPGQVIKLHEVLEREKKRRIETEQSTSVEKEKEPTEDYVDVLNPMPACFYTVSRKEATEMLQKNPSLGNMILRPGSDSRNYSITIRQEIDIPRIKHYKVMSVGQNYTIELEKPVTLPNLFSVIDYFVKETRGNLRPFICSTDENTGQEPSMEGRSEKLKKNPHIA

In another experiment the target is T3, PTPN6(SH2dom.C-term.) (Homo sapiens, UniProt P29350).
T3 construct: SH2dom.C-term. denotes SH2 domain closest to C-terminus of protein; made in house; host or cells: HEK293 (transient transfection, unpurified extract)
T3 sequence (P29350 110-213 limits assumed): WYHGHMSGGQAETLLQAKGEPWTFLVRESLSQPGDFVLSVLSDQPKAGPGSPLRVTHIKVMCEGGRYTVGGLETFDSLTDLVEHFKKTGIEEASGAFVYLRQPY

The target in a further experiment is T4, SLP76 (Homo sapiens, UniProt Q13094).
T4 construct: made in house; host or cells: HEK293 (transient transfection), unpurified extract
T4 sequence (Q13094 1-533): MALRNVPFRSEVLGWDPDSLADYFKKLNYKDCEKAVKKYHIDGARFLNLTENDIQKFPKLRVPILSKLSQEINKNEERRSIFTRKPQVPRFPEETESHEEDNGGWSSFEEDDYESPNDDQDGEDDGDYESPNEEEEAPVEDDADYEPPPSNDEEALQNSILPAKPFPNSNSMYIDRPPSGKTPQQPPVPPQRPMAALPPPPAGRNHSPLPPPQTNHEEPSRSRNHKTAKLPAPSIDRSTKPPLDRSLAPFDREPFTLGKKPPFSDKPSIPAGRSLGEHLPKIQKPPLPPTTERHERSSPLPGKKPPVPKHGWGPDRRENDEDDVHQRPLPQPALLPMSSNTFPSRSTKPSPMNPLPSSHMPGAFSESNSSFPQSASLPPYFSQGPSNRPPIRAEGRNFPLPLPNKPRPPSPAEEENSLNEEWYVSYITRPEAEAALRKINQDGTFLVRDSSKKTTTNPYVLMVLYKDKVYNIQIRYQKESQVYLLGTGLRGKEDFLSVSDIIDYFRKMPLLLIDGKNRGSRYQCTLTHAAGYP

In the next experiment the target is T5, ITK (Homo sapiens, UniProt Q08881).
T5 construct: the DNA-tagged SH2 domain concentrations used in this study were <0.1 nM; made in house; host or cells: HEK293 (transient transfection, unpurified extract)
T5 sequence (Q08881 239-338 limits assumed): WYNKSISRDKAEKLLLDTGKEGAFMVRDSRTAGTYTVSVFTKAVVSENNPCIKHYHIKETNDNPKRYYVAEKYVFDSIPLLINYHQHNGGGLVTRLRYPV

The target of another experiment is T6, BLNK (Homo sapiens, UniProt Q8WV28).
T6 construct: the DNA-tagged SH2 domain concentrations used in this study were <0.1 nM; made in house; host or cells: HEK293 (transient transfection; unpurified extract)
T6 sequence (Q8WV28 346-453 limits assumed): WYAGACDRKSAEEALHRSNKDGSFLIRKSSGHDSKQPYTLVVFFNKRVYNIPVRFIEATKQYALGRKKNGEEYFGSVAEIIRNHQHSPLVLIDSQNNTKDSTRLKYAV

Another experiment concerns the target T7, GRB10 (Homo sapiens, UniProt Q13322).
T7 construct: the DNA-tagged SH2 domain concentrations used in this study were <0.1 nM; made in house; host or cells: HEK293 (transient transfection; unpurified extract)
T7 sequence (Q13322 493-574 limits assumed): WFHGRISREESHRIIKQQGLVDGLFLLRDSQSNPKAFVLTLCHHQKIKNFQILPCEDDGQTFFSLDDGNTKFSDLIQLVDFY

The next experiment deals with T8, MIST (Homo sapiens, UniProt Q7Z7G1).
T8 construct: the DNA-tagged SH2 domain concentrations used in this study were <0.1 nM; made in house; host or cells: HEK293 (transient transfection, unpurified extract)
T8 sequence (Q7Z7G1 309-419 limits assumed): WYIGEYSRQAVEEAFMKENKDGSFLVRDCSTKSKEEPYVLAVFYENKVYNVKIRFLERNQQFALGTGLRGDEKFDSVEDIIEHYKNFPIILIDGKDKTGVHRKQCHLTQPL

Another experiment deals with T9, BRK (Homo sapiens, UniProt Q13882).
T9 construct: the DNA-tagged SH2 domain concentrations used in this study were <0.1 nM; made in house; host or cells: HEK293 (transient transfection; unpurified extract)

A further experiment has as its target T10, APS (SH2B2) (Homo sapiens, UniProt O14492).
T10 construct: the DNA-tagged SH2 domain concentrations used in this study were <0.1 nM; made in house; host or cells: HEK293 (transient transfection; unpurified extract)

A further experiment addresses T11, RASA1(SH2dom.C-term.) (Homo sapiens, UniProt P20936).
T11 construct: SH2dom.C-term. denotes SH2 domain closest to C-terminus of protein; made in house; host or cells: HEK293 (transient transfection, unpurified extract)
T11 sequence (P20936 351-441 limits assumed): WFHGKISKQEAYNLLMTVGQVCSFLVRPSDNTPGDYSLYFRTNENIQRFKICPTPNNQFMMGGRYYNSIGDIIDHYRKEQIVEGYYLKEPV

The next experiment concerns the target T12, DAPP1 (Homo sapiens, UniProt Q9UN19).
T12 construct: the DNA-tagged SH2 domain concentrations used in this study were <0.1 nM; made in house; host or cells: HEK293 (transient transfection; unpurified extract)
T12 sequence (Q9UN19 35-129 limits assumed): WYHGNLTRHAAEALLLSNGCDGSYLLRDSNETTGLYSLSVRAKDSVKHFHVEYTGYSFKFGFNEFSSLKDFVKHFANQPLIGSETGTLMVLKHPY

The target in another experiment is T13, SOCS4 (Homo sapiens, UniProt Q8WXH5).
T13 construct: made in house; host or cells: HEK293 (transient transfection), unpurified extract
T13 sequence (Q8WXH5 1-440): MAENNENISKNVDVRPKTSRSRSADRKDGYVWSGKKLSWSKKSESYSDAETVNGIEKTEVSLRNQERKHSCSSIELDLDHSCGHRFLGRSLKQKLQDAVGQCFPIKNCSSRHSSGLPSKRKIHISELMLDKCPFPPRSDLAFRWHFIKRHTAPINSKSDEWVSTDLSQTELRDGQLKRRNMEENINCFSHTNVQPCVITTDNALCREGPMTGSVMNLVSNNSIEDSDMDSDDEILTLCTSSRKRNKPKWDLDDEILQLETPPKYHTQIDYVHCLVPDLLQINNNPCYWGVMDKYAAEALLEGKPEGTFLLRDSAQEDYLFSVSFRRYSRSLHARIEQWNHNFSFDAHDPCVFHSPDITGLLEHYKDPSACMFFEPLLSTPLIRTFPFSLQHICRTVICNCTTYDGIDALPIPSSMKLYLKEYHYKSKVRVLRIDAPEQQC

Non-standard residues stand in square brackets, D forms with d. Residues, ends and D or L forms follow the SMILES beside them. pY = N[C@@H](Cc1ccc(OP(=O)(O)O)cc1)C(=O)O

T9 sequence (Q13882 78-170 limits assumed): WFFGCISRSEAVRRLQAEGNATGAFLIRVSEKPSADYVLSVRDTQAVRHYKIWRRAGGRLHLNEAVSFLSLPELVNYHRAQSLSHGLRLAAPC
T10 sequence (O14492 417-515 limits assumed): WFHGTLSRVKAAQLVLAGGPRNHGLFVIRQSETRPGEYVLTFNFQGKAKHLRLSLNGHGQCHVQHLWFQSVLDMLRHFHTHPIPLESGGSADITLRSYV

The term Kd denotes the equilibrium constant for the complex coming apart. The low end stands for a tighter complex, the high end for a looser complex. As to `CC[C@H](C)[C@H](NC(=O)[C@H](CC(C)C)NC(=O)[C@@H](NC(=O)[C@H](CC(N)=O)NC(=O)[C@H](CCC(=O)O)NC(=O)[C@H](Cc1ccc(OP(=O)(O)O)cc1)NC(=O)[C@H](CO)NC(=O)[C@H](CC(N)=O)NC(=O)[C@H](C)NC(C)=O)C(C)C)C(=O)N[C@@H](C)C(=O)N[C@@H](CCCCN)C(N)=O` (Ac-ANS[pY]ENVLIAK-NH2), the values for the Kd on STAP2 and on STAP1 were 38900 ± 7930 nM and 2780 ± 615 nM, respectively.

As for `CC[C@H](C)[C@H](NC(=O)[C@H](CCC(=O)O)NC(=O)[C@H](CCC(N)=O)NC(=O)[C@H](CCC(=O)O)NC(=O)[C@@H](NC(=O)[C@H](C)NC(C)=O)[C@@H](C)O)C(=O)N[C@H](C(=O)N[C@@H](Cc1ccc(OP(=O)(O)O)cc1)C(=O)N[C@@H](C)C(=O)N[C@@H](CCC(=O)O)C(=O)N[C@@H](CC(C)C)C(=O)N[C@@H](CC(N)=O)C(=O)N[C@@H](CC(C)C)C(=O)N[C@@H](CCC(N)=O)C(=O)N[C@@H](CCCCN)C(N)=O)[C@@H](C)O` (Ac-ATEQEIT[pY]AELNLQK-NH2), binding at PTPN6(SH2dom.C-term.) was put at a Kd of 1490 ± 666 nM.

Take `CC(=O)N[C@@H](CC(=O)O)C(=O)N[C@@H](CC(=O)O)C(=O)N[C@@H](CC(=O)O)C(=O)N[C@@H](Cc1ccc(OP(=O)(O)O)cc1)C(=O)N[C@@H](CC(=O)O)C(=O)N[C@@H](CC(=O)O)C(=O)N[C@H](C(=O)N[C@@H](CC(=O)O)C(N)=O)C(C)C` [Ac-DDDpYDDVD-NH2] (Ac-DDD[pY]DDVD-NH2): the Kd was 1410 ± 432 nM at SLP76; 1450 ± 153 nM on ITK; 137 ± 22.4 nM on BLNK; 1260 ± 1160 nM at GRB10; 32.9 ± 6.7 nM on MIST; 226 ± 200 nM at BRK. At APS (SH2B2), this compound had a Kd of 8780 ± 971 nM.

Consider `CSCC[C@H](NC(=O)[C@@H]1CCCN1C(=O)[C@H](CCC(=O)O)NC(=O)[C@H](C)NC(=O)[C@H](Cc1ccc(OP(=O)(O)O)cc1)NC(=O)[C@H](CC(=O)O)NC(=O)[C@H](CO)NC(=O)[C@@H]1CCCN1C(=O)[C@H](CC(=O)O)NC(=O)[C@H](Cc1ccccc1)NC(=O)CNC(C)=O)C(=O)N[C@@H](CC(=O)O)C(=O)N[C@@H](C)C(=O)N[C@H](C(=O)N[C@H](C(N)=O)C(C)C)C(C)C` (Ac-GFDPSD[pY]AEPMDAVV-NH2), for which the Kd at RASA1(SH2dom.C-term.) came out at 4.11 ± 0.48 nM.

As for `CC(=O)N[C@@H](CC(C)C)C(=O)N[C@@H](CC(C)C)C(=O)N1CCC[C@H]1C(=O)N[C@@H](CC(C)C)C(=O)N[C@@H](CC(=O)O)C(=O)N[C@@H](CCCCN)C(=O)N[C@@H](CC(=O)O)C(=O)N[C@@H](Cc1ccc(OP(=O)(O)O)cc1)C(=O)N[C@@H](Cc1ccc(OP(=O)(O)O)cc1)C(=O)N[C@H](C(=O)N[C@H](C(=O)N[C@@H](CCCNC(=N)N)C(=O)N[C@@H](CCC(=O)O)C(=O)N1CCC[C@H]1C(=O)NCC(=O)N[C@@H](CCC(N)=O)C(N)=O)C(C)C)C(C)C`, the figures for the Kd at DAPP1 and on SOCS4 were 41300 ± 5960 nM and 1.91 ± 0.5 nM, respectively.
